{
  "source": "patent US20020142347A1",
  "about": "“Biosensor” (BIOSENSOR ApS, priority 2000, published 2002)",
  "biological_target": "T1, FACI-24 (Bos taurus, UniProt P07107, M25C)",
  "T1 construct": "made in house; host or cells: E. coli BL21(DE3)pLysS, pET3a vector",
  "T1 sequence (P07107 2-87 M25C)": "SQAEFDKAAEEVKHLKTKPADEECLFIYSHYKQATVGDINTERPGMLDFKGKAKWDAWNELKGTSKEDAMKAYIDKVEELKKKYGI",
  "assay": "Fluorescence emission change of FACI-24 on titration with CoA and acyl-CoA esters",
  "type": "binding, bovine",
  "description": "Quantitative determination of binding affinities (KD) were performed by isothermal titration micro calorimetry as previously described (Faergeman et. al., 1996; Biochemistry 35, 14118-14126). Qualitative evaluation of relative binding affinities were determined by isoelectrical focusing using the Pharmacia Fast Gel system according to the prescriptions given by the manufacture. Fluorescence emission changes induced by acyl-CoA binding to badan modified protein were determined as follows: 5 μl portions of acyl-CoAs were added from stock solutions disolved in binding buffer, (10 mM Hepes, 150 mM NaCL, 1 mM NaHPO4, pH 7.4) containing 3.4 μM Badan derivatized protein to a 1 ml 3.4 μM solution of the Badan derivatized ACBP in the same buffer. The fluorescence emission was measured on a SPEX FLOUROLOG (Industries Inc, Edison N.J., USA) with excitation at 400 nm and emission scan from 400 nm to 550 nm. The concentration of acyl-CoA in the aqueous phase was determined from the fluorescence emission sensitivities at 495 and 470 nm repectively essentially by the method described by (Grynkiewickz et. al.,1985, J. Biol. Chem. 260, 3440-3450) according to which:\nFluorescence titration emission spectra from 415 nm to 550 nm (excitation at 400 nm) were performed for CoA, C4:0-, C8:0-, C12:0-, C16:0-, and C20:0-CoA with all four mutated and badan modified proteins.\nThe emission maximum of FACI-24 without ligand added was 510 nm and titration with CoA, C4:0-, C8:0-, C12:0-, […], C16:0- and C20:0-CoA caused 0, 16, 34, 42, 46 and 46 nm downshift in emission maximum, respectively (results not shown). C16:0-CoA induced a 5,5 fold increase in emission at 464 nm (FIG. 10).\nTitration of FACI with acyl-CoAs was done using a SPEX FLOUROLOG (Industries Inc, Edison N.J., USA) with excitation at 387 nm and emission at 460 nm, with both excitation and emission slits set to 4.5 nm. FACI (0.5-4.5 uM, as indicated) was dissolved in 1.5 ml binding buffer (10 mM HEPES 150 mM NaCl, 5 mM KCl, 1 mM Na2HPO4, pH 7.4) and titrated with a 10 μM acyl-CoA dissolved in binding buffer, with or without FACI added, as indicated. Fluorescence emission values (counts per second) measured without FACI added to the ligand stock solution were corrected for titrand dilution.",
  "data": [
    {"smiles": "CCCCCCCCCCCCCCCC(=O)SCCNC(=O)CCNC(=O)[C@H](O)C(C)(C)COP(=O)(O)OP(=O)(O)OC[C@H]1O[C@@H](n2cnc3c(N)ncnc32)[C@H](O)[C@@H]1OP(=O)(O)O", "note": "[C16:0-CoA, palmitoyl-CoA]", "values": [
      {"measurement": "Fold increase in emission of FACI-24 at 464 nm", "setting": "emission at 464 nm", "value": "5,5 fold"},
      {"measurement": "Downshift in emission maximum of FACI-24", "setting": "emission maximum without ligand 510 nm, excitation 400 nm", "value": 46, "unit": "nm"}
    ]}
  ]
}
